# Test results as given in the supplement of paper PMC10307832.
# Assays:
# Assay in all cases: relative viability (nuclei count vs DMSO), 5 days (fraction); higher = more cells survive
# EMC-BAC-2 = system: EMC-BAC-2
# In short: (§1)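 Lung cancer cell lines were pin-tool dosed in 1536-well plates on the day after seeding, with either a lone drug or a fixed anchor-drug dose plus five library-drug doses (not always all listed) in √10 steps. Nuclei were counted on 4× images after 5 days. Relative viability is the ratio of treated-well to vehicle-well nuclei counts, with each value a median of duplicate plates.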
# HARA = system: HARA
# In short: as §1
# NCI-H2170 = system: NCI-H2170
# In short: as §1
# SK-LU-1 = system: SK-LU-1
# In short: as §1
# SW 1573 = system: SW 1573
# In short: as §1
# HOP-62 = system: HOP-62
# In short: as §1
# NCI-H1993 = system: NCI-H1993
# In short: as §1
# COR-L23 = system: COR-L23
# In short: as §1
# NCI-H1793 = system: NCI-H1793
# In short: as §1
# NCI-H2228 = system: NCI-H2228
# In short: as §1
# NCI-H3122 = system: NCI-H3122
# In short: as §1
# SW 900 = system: SW 900
# In short: as §1
# NCI-H727 = system: NCI-H727
# In short: as §1
# A-427 = system: A-427
# In short: as §1
# LU99A = system: LU99A
# In short: as §1
# NCI-H2009 = system: NCI-H2009
# In short: as §1
# ABC-1 = system: ABC-1
# In short: as §1
# LXF-289 = system: LXF-289
# In short: as §1
# NCI-H1944 = system: NCI-H1944
# In short: as §1
# LK-2 = system: LK-2
# In short: as §1
# SK-MES-1 = system: SK-MES-1
# In short: as §1
# NCI-H596 = system: NCI-H596
# In short: as §1
# PC-3 [JPC-3] = system: PC-3 [JPC-3]
# In short: as §1
smiles,measurement,setting,value
Clc1ccc(Nc2nnc(Cc3ccncc3)c3ccccc23)cc1 [Vatalanib] + Cc1cc(Nc2cc(N3CCN(C)CC3)nc(Sc3ccc(NC(=O)C4CC4)cc3)n2)n[nH]1 [Tozasertib] (partner 0.1 µM),relative viability,EMC-BAC-2; first compound 0.04 µM,0.218
same,relative viability,EMC-BAC-2; first compound 0.1265 µM,0.302
same,relative viability,EMC-BAC-2; first compound 0.4 µM,0.308
same,relative viability,EMC-BAC-2; first compound 1.265 µM,0.264
same,relative viability,EMC-BAC-2; first compound 4 µM,0.305
same,relative viability,HARA; first compound 0.04 µM,0.0991
same,relative viability,HARA; first compound 0.1265 µM,0.11
same,relative viability,HARA; first compound 0.4 µM,0.108
same,relative viability,HARA; first compound 1.265 µM,0.0945
same,relative viability,HARA; first compound 4 µM,0.112
same,relative viability,NCI-H2170; first compound 0.04 µM,0.768
same,relative viability,NCI-H2170; first compound 0.1265 µM,0.706
same,relative viability,NCI-H2170; first compound 0.4 µM,0.796
same,relative viability,NCI-H2170; first compound 1.265 µM,0.677
same,relative viability,NCI-H2170; first compound 4 µM,0.777
same,relative viability,SK-LU-1; first compound 0.04 µM,0.374
same,relative viability,SK-LU-1; first compound 0.1265 µM,0.33
same,relative viability,SK-LU-1; first compound 0.4 µM,0.404
same,relative viability,SK-LU-1; first compound 1.265 µM,0.349
same,relative viability,SK-LU-1; first compound 4 µM,0.322
same,relative viability,SW 1573; first compound 0.04 µM,0.145
same,relative viability,SW 1573; first compound 0.1265 µM,0.165
same,relative viability,SW 1573; first compound 0.4 µM,0.215
same,relative viability,SW 1573; first compound 1.265 µM,0.257
same,relative viability,SW 1573; first compound 4 µM,0.153
same,relative viability,HOP-62; first compound 0.04 µM,0.401
same,relative viability,HOP-62; first compound 0.1265 µM,0.335
same,relative viability,HOP-62; first compound 0.4 µM,0.396
same,relative viability,HOP-62; first compound 1.265 µM,0.336
same,relative viability,HOP-62; first compound 4 µM,0.405
same,relative viability,NCI-H1993; first compound 0.04 µM,0.563
same,relative viability,NCI-H1993; first compound 0.1265 µM,0.566
same,relative viability,NCI-H1993; first compound 0.4 µM,0.608
same,relative viability,NCI-H1993; first compound 1.265 µM,0.542
same,relative viability,NCI-H1993; first compound 4 µM,0.592
same,relative viability,COR-L23; first compound 0.04 µM,0.232
same,relative viability,COR-L23; first compound 0.1265 µM,0.194
same,relative viability,COR-L23; first compound 0.4 µM,0.206
same,relative viability,COR-L23; first compound 1.265 µM,0.168
same,relative viability,COR-L23; first compound 4 µM,0.173
same,relative viability,NCI-H1793; first compound 0.04 µM,0.342
same,relative viability,NCI-H1793; first compound 0.1265 µM,0.341
same,relative viability,NCI-H1793; first compound 0.4 µM,0.364
same,relative viability,NCI-H1793; first compound 1.265 µM,0.276
same,relative viability,NCI-H1793; first compound 4 µM,0.329
same,relative viability,NCI-H2228; first compound 0.04 µM,0.235
same,relative viability,NCI-H2228; first compound 0.1265 µM,0.309
same,relative viability,NCI-H2228; first compound 0.4 µM,0.273
same,relative viability,NCI-H2228; first compound 1.265 µM,0.227
same,relative viability,NCI-H2228; first compound 4 µM,0.239
same,relative viability,NCI-H3122; first compound 0.04 µM,0.401
same,relative viability,NCI-H3122; first compound 0.1265 µM,0.358
same,relative viability,NCI-H3122; first compound 1.265 µM,0.378
same,relative viability,NCI-H3122; first compound 4 µM,0.385
same,relative viability,SW 900; first compound 0.1265 µM,0.563
same,relative viability,SW 900; first compound 0.4 µM,0.68
same,relative viability,SW 900; first compound 1.265 µM,0.482
same,relative viability,SW 900; first compound 4 µM,0.572
same,relative viability,NCI-H727; first compound 0.04 µM,0.6
same,relative viability,NCI-H727; first compound 0.1265 µM,0.658
same,relative viability,NCI-H727; first compound 0.4 µM,0.472
same,relative viability,NCI-H727; first compound 1.265 µM,0.624
same,relative viability,NCI-H727; first compound 4 µM,0.533
same,relative viability,A-427; first compound 0.04 µM,0.224
same,relative viability,A-427; first compound 0.1265 µM,0.21
same,relative viability,A-427; first compound 0.4 µM,0.232
same,relative viability,A-427; first compound 1.265 µM,0.206
same,relative viability,A-427; first compound 4 µM,0.2
same,relative viability,LU99A; first compound 0.04 µM,0.282
same,relative viability,LU99A; first compound 0.1265 µM,0.289
same,relative viability,LU99A; first compound 0.4 µM,0.305
same,relative viability,LU99A; first compound 1.265 µM,0.266
same,relative viability,LU99A; first compound 4 µM,0.286
same,relative viability,NCI-H2009; first compound 0.04 µM,0.752
same,relative viability,NCI-H2009; first compound 0.1265 µM,0.678
same,relative viability,NCI-H2009; first compound 0.4 µM,0.864
same,relative viability,NCI-H2009; first compound 1.265 µM,0.739
same,relative viability,NCI-H2009; first compound 4 µM,0.682
same,relative viability,ABC-1; first compound 0.04 µM,0.184
same,relative viability,ABC-1; first compound 0.1265 µM,0.166
same,relative viability,ABC-1; first compound 1.265 µM,0.177
same,relative viability,ABC-1; first compound 4 µM,0.207
same,relative viability,LXF-289; first compound 0.04 µM,0.201
same,relative viability,LXF-289; first compound 0.1265 µM,0.168
same,relative viability,LXF-289; first compound 0.4 µM,0.229
same,relative viability,LXF-289; first compound 1.265 µM,0.192
same,relative viability,LXF-289; first compound 4 µM,0.212
same,relative viability,NCI-H1944; first compound 0.04 µM,0.267
same,relative viability,NCI-H1944; first compound 0.1265 µM,0.247
same,relative viability,NCI-H1944; first compound 0.4 µM,0.262
same,relative viability,NCI-H1944; first compound 1.265 µM,0.266
same,relative viability,NCI-H1944; first compound 4 µM,0.235
same,relative viability,LK-2; first compound 0.04 µM,0.164
same,relative viability,LK-2; first compound 0.1265 µM,0.161
same,relative viability,LK-2; first compound 0.4 µM,0.173
same,relative viability,LK-2; first compound 1.265 µM,0.182
same,relative viability,LK-2; first compound 4 µM,0.203
same,relative viability,SK-MES-1; first compound 0.04 µM,0.951
same,relative viability,SK-MES-1; first compound 0.1265 µM,0.897
same,relative viability,SK-MES-1; first compound 0.4 µM,1.01
same,relative viability,SK-MES-1; first compound 1.265 µM,0.813
same,relative viability,SK-MES-1; first compound 4 µM,0.803
same,relative viability,NCI-H596; first compound 0.04 µM,0.783
same,relative viability,NCI-H596; first compound 0.1265 µM,0.821
same,relative viability,NCI-H596; first compound 0.4 µM,0.831
same,relative viability,NCI-H596; first compound 1.265 µM,0.747
same,relative viability,NCI-H596; first compound 4 µM,0.952
same,relative viability,PC-3 [JPC-3]; first compound 0.04 µM,0.876
same,relative viability,PC-3 [JPC-3]; first compound 0.1265 µM,0.864
same,relative viability,PC-3 [JPC-3]; first compound 0.4 µM,0.873
same,relative viability,PC-3 [JPC-3]; first compound 1.265 µM,0.835
same,relative viability,PC-3 [JPC-3]; first compound 4 µM,0.876
